Assay results taken from US10711006B2, “Selective Bruton's tyrosine kinase inhibitor and use thereof” (HANGZHOU HERTZ PHARMACEUTICAL CO., LTD., priority 2016, dated 2020).

What was measured:
BTK Kinase = BTK Kinase (Homo sapiens (Human), UniProt Q06187); assay: In-vitro Btk kinase inhibitory activity assay; format: biochemical
Method: In-Vitro Btk Kinase Inhibitory Activity Assay for Compounds of the Present Invention:
10 μL of the 50× drug stock solution was added to a 96-well plate and then 90 μL of a 1× Kinase Buffer was added and the 96-well plate was shaken for 10 minutes on a shaker. From each well of the 96-well plate, 5 μL of the drug solution was taken and then transferred to a 384-well plate which was provided with 2 duplicate wells.
Preparation of a 2.5× Kinase Buffer: an enzyme was added to the 1× kinase base buffer.
Prepare a 2.5× oligopeptide solution: FAM-labeled oligopeptide and ATP were added to the 1× kinase base buffer.
10 μL of the 2.5× Kinase Buffer was added to the 384-well plate loaded with 5 μL of the drug solution and incubation was then carried out for 10 minutes at room temperature. 10 μL of the 2.5× oligopeptide solution was added to the 384-well plate and incubation was then carried out for 1 hour at 28° C. The reaction was stopped by adding 25 μL of a stop buffer. The readings were recorded and the inhibition rate of the compound on the enzyme was calculated. The IC50 of BTK kinase was calculated by fitting.

ITK = ITK (Homo sapiens (Human), UniProt Q08881); assay: Kinase selectivity experiment, ITK; format: biochemical; conditions: read-out: Inhibitory activity against ITK (IC50)
Method: (§1) A 1× kinase base buffer and a reaction stop buffer for respective kinases in the experiment were prepared as required.
(§2) Preparation of Compounds to be Tested:
(§3) 2) diluting each compound at a 5-fold concentration gradient in a 96-well plate to 6 to 7 concentrations and ensuring that the drug volume in each well was 10 μl; and at the same time adding 100 μl of DMSO to prepare a blank control group and also preparing a negative control group without the enzyme substrate; and
(§4) 3) preparing another 96-well plate, adding 10 μl of each of the above compounds to 90 μl of the 1× kinase base buffer and mixing for 10 minutes to be uniform.
(§5) Preparation of the Plate to be Tested:
(§6) 1) 5 μl of the mixed solution prepared as above in the 96-well plate was taken and transferred to a 384-well plate, with two replicate wells for each compound.
(§7) 1) Preparing a 2.5× kinase solution and adding a corresponding 1× kinase base buffer;
(§8) 2) preparing a 2.5× polypeptide solution and adding FAM-labeled polypeptide and ATP in the 1× kinase base buffer; and
(§9) 3) adding 10 μl of 2.5× kinase solution to a 384-well plate to be tested, placing in a room-temperature environment for 10 minutes, and then adding 10 μl of the 2.5× polypeptide solution, reacting at 28° C. for 1 hour, and then adding 25 μl of a reaction stop buffer.
(§10) The Caliper program reads the plate and uses the data to obtain the IC50 values of the corresponding compounds against kinases.

CSK = CSK (Homo sapiens (Human), UniProt P41240); assay: Kinase selectivity experiment, CSK; format: biochemical; conditions: read-out: Inhibitory activity against CSK (IC50)
Method: as §1, §2, §3, §4, §5, §6, §7, §8, §9, §10

FGR = FGR (Homo sapiens (Human), UniProt P09769); assay: Kinase selectivity experiment, FGR; format: biochemical; conditions: read-out: Inhibitory activity against FGR (IC50)
Method: as §1, §2, §3, §4, §5, §6, §7, §8, §9, §10

JAK3 = JAK3 (Homo sapiens (Human), UniProt P52333); assay: Kinase selectivity experiment, JAK3; format: biochemical; conditions: read-out: Inhibitory activity against JAK3 (IC50)
Method: as §1, §2, §3, §4, §5, §6, §7, §8, §9, §10

FLT3 = FLT3 (Homo sapiens (Human), UniProt P36888); assay: Kinase selectivity experiment, FLT3; format: biochemical; conditions: read-out: Inhibitory activity against FLT3 (IC50)
Method: as §1, §2, §3, §4, §5, §6, §7, §8, §9, §10

[1] = Oral pharmacokinetic experiment in SD rats; format: in vivo; conditions: for oral bioavailability relative to ibrutinib: oral 10 mg/kg; for AUC0-C(ng/h/mL) / AUC0-t (ng/h/mL) / Cmax / Tmax / half-life: oral (intragastric) 10 mg/kg; for AUC0-C(ng/h/mL) / AUC0-t (ng/h/mL) / bioavailability / Cmax / Tmax / half-life: mean n = 3; for bioavailability / Cmax / Tmax / half-life: rat, plasma; for bioavailability: oral 10 mg/kg vs intravenous 2 mg/kg
Method: SD rats were used as experimental animals and were subjected to intragastric administration in a dose of 10 mg/kg and tail-vein intravenous injection in a dose of 2 mg/kg. The tail-vein blood sampling time points in the intragastric administration were 0.17, 0.33, 0.5, 1, 1.5, 2, 4, 6, 8, 12, and 24 hours; the blood sampling time points in the intravenous administration were 0.05, 0.1, 0.17, 0.5, 1, 2, 4, 6, 8, 12, and 24 hours. 0.3 ml of whole blood was taken, and 0.1 ml of plasma after centrifugation was taken and analyzed by LC-MS.

[2] = test system: Mino subcutaneous xenograft tumor; assay: In-vivo pharmacodynamic study on Mino subcutaneous xenograft tumor models; conditions: CB17 SCID mice, intragastric, twice a day
Method: In CB17 SCID mice, 0.2 mL of cell suspension containing 5×10^6 Mino cells was subcutaneously inoculated into the right back of each mouse, and when the mean tumor volume reaches approximately 139.94 mm3 (day 26 after inoculation), group administration was started (intragastric administration, twice a day, 14 days in total). Animals were monitored daily for health and mortality, and tumor diameters were measured twice a week using vernier calipers to see if tumor growth could be inhibited, delayed, or cured.

[3] = test system: arthritis induced by anti-collagen antibodies and lipopolysaccharides; assay: Rheumatoid arthritis model induced by anti-collagen antibodies and lipopolysaccharides; format: in vivo, Balb/c mice; conditions: for level of IL-1β in serum (in words): 10 mg/kg orally once a day; for level of IL-1β in serum (in words) / inflammatory cell infiltration, synovial hyperplasia, inflammatory granulation tissue formation, necrotic tissue: versus model group; for IL-1β: serum on Day 13, 10 mg/kg orally once a day Day 2 to Day 12; for inflammatory cell infiltration, synovial hyperplasia, inflammatory granulation tissue formation, necrotic tissue: tissue samples after treatment
Method: In Balb/c mice, arthritis was induced by administration of anti-collagen antibodies and lipopolysaccharides (Nandakumar et al., Am. J. Pathol. 2003, 163: 1827-1837).
The specific method was as follows: On Day 0, female Balb/c mice were intravenously injected with anti-type II collagen ChemicomAb mixture in a dose of 100 mg/kg, and on Day 1, lipopolysaccharide was intraperitoneally injected in a dose of 1.25 mg/kg. From Day 2 to Day 12, Compounds 15a, 17a, 24a and 24e were orally administered once a day in a dose of 10 mg/kg. On Day 13 after abdominal anesthesia, […] of blood was taken from the femoral artery and centrifuged at 3000 r/min for 20 minutes, serum was taken to detect IL-1β with a test kit, and related tissue samples were observed.

[4] = test system: human lung cancer cell (A549); assay: In-vitro tumor cell proliferation inhibition (CCK-8), A549; conditions: A549, 72 h, read-out: Tumor cell proliferation inhibitory activity (IC50, μM) A549
Method: (§11) The in-vitro antitumor activity assay was carried out on the synthesized compound by using different solid tumors and leukemia cell lines:
(§12) Cell lines: human lung cancer cell (A549), human mantle cell lymphoma (MINO), diffuse giant B-cell lymphoma (OCI-LY10), and human diffuse large B lymphoma (TMD-8).
(§13) Preparation method of the drug: the drug was dissolved in DMSO to make a 10 mM stock solution, and then the stock solution was diluted in a certain ratio to obtain 5 different concentrations (test concentration 100×). In-vitro culture of tumor cells:
(§14) The tumor cells A549, MINO, OCI-LY10, and TMD-8 were seeded in a 96-well plate at 4000 cells/200 μL/well and then incubated overnight at 37° C. in a 5% CO2 cell culture incubator. 2 μL of the compound was added to each well to final concentrations of 50 μM, 10 μM, 2 μM, 0.4 μM, and 0.08 μM and then incubated for 72 hours at 37° C. in a 5% CO2 cell incubator, with DMSO (2%) as a control group. […] Wells loaded with the corresponding amount of cell culture fluid the and CCK-8 solution but no cells were considered as blank controls. The absorbance (OD value) was measured at 450 nm using a microplate reader, and the obtained data was used to calculate IC50.

[5] = test system: human diffuse large B lymphoma (TMD-8); assay: In-vitro tumor cell proliferation inhibition (CCK-8), TMD-8; conditions: TMD8, 72 h, read-out: Tumor cell proliferation inhibitory activity (IC50, nM) TMD-8
Method: as §11, §12, §13, §14

[6] = test system: diffuse giant B-cell lymphoma (OCI-LY10); assay: In-vitro tumor cell proliferation inhibition (CCK-8), OCI-LY10; conditions: Homo sapiens, OCI-Ly10, 72 h, read-out: Tumor cell proliferation inhibitory activity (IC50, nM) OCI-LY10
Method: as §11, §12, §13, §14

Chain of BTK Kinase (Q06187 whole entry): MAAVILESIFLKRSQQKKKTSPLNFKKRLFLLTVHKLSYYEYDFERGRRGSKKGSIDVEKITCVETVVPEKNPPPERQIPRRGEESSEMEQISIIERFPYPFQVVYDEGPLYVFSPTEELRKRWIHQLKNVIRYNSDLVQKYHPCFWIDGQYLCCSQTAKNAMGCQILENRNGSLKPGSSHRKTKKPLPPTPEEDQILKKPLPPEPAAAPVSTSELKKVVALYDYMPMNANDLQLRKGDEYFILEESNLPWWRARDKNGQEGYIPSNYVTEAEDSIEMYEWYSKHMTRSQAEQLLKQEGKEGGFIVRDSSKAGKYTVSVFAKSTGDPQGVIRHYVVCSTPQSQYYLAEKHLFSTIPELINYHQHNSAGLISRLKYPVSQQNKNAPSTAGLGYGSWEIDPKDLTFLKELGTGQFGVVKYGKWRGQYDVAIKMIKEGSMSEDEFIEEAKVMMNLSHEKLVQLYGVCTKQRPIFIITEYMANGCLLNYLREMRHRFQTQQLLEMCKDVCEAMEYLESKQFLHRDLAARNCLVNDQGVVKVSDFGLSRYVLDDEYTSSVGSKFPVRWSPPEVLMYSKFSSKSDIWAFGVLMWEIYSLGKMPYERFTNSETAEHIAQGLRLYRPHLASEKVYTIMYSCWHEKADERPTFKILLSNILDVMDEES
Chain of FLT3 (P36888 27-993, species assumed): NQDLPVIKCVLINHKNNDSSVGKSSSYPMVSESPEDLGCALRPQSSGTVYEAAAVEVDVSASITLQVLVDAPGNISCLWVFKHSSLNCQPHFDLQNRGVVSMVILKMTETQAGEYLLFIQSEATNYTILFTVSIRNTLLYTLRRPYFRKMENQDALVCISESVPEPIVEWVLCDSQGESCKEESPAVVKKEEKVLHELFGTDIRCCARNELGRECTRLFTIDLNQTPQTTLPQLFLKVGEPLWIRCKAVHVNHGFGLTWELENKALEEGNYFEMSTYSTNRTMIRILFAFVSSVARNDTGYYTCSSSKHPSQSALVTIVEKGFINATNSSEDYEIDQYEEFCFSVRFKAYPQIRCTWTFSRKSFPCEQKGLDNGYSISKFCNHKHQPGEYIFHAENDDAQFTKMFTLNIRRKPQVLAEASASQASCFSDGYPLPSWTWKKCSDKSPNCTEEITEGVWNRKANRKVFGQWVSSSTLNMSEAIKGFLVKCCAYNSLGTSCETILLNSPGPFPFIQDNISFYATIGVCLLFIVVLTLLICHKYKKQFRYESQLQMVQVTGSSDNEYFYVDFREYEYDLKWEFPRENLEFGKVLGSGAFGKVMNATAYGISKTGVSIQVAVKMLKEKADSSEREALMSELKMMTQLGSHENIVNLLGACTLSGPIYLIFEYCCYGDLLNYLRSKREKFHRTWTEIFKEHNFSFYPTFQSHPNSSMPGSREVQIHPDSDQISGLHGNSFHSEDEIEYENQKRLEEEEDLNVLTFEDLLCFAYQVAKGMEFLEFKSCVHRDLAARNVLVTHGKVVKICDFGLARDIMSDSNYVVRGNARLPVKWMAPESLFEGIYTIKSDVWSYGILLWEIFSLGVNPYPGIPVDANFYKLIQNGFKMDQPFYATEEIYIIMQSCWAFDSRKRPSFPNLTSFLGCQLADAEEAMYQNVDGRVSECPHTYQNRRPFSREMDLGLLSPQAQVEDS
Chain of ITK (Q08881 whole entry, species assumed): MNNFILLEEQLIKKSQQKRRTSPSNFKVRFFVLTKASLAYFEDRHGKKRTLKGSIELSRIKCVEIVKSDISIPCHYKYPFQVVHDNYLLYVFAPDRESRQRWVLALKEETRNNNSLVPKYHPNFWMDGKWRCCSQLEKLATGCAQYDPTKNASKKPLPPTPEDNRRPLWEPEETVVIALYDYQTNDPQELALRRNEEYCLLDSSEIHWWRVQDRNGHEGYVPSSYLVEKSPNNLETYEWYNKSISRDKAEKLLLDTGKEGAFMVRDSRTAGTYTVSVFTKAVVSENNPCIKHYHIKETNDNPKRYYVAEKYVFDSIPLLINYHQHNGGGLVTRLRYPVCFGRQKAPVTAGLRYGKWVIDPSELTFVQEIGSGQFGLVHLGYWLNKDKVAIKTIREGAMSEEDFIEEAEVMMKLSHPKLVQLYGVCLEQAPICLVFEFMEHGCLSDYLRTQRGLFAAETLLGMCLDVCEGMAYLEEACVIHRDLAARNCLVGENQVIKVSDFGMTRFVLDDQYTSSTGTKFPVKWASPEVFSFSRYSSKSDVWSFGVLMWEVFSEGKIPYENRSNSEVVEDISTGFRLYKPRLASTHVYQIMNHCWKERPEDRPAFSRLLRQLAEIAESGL
Chain of FGR (P09769 whole entry, species assumed): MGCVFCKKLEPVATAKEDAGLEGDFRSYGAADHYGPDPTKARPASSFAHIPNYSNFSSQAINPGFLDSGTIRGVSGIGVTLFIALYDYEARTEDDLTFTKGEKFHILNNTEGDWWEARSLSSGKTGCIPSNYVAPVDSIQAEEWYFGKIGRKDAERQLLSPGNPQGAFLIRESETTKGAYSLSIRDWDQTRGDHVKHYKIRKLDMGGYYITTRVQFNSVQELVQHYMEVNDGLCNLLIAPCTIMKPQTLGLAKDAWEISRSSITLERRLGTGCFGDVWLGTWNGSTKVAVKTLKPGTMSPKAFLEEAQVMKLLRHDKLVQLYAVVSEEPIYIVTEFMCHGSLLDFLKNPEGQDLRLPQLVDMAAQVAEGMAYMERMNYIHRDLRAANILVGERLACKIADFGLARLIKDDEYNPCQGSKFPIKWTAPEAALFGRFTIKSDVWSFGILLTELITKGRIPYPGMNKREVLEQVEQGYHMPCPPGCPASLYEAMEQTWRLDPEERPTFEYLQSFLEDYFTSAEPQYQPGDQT
Chain of JAK3 (P52333 whole entry, species assumed): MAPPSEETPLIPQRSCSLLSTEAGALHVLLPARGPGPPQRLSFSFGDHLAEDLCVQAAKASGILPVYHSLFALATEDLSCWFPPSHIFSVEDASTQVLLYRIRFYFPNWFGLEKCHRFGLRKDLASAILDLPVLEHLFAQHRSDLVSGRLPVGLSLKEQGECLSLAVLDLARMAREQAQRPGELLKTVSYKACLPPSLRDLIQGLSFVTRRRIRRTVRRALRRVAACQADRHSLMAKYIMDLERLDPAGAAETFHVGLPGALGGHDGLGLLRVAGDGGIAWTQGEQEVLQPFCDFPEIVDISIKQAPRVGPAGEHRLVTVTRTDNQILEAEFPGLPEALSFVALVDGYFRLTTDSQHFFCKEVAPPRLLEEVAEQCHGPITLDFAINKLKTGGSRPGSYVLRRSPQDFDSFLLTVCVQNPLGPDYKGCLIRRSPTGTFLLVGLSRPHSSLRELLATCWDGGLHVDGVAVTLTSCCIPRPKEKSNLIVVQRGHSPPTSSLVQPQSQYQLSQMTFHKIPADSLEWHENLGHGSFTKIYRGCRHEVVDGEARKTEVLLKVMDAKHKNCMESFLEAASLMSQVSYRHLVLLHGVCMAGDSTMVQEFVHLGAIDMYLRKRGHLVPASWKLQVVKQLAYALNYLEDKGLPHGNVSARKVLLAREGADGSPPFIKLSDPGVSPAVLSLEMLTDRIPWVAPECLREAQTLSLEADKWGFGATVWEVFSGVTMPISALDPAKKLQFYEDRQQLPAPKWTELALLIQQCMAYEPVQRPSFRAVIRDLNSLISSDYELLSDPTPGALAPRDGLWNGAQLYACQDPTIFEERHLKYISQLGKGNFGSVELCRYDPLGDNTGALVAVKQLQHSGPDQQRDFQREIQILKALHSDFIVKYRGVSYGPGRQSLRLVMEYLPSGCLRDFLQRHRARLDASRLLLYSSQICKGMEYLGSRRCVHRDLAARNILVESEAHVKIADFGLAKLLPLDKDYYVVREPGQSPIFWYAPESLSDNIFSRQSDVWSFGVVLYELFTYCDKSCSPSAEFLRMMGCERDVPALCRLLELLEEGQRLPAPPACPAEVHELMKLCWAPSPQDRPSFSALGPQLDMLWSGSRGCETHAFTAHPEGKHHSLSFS

Row | IC50 (BTK Kinase) | IC50 (ITK) | IC50 (CSK) | IC50 (FGR) | IC50 (JAK3) | IC50 (FLT3) | oral bioavailability relative to ibrutinib [1] | AUC0-C(ng/h/mL) [1] | AUC0-t (ng/h/mL) [1] | bioavailability [1] | Cmax [1] | Tmax [1] | half-life [1] | IC50 [4] | IC50 [5] | Compound | TGI*(14 days) (%) calculated on the basis of tumor volume [2] | TGI**(14 days) (%) calculated on the basis of tumor weight [2] | level of IL-1β in serum (in words) [3] | IL-1β [3] | inflammatory cell infiltration, synovial hyperplasia, inflammatory granulation tissue formation, necrotic tissue [3] | other results
1 | 3.2 nM | > 1000 nM | > 1000 nM | > 1000 nM | > 1000 nM | > 1000 nM | 1.67 times | 698 ng·h/mL | 624 ng·h/mL | 20.9% | 292 ng/mL | 0.333 h | 6.17 h | 1.56 µM | 8.16 nM | C=CC(=O)N1CCC[C@@H](n2nc(-c3ccc(Oc4ccccc4)nc3)c3c(N)ncnc32)C1 [Compound 15a, (R)-1-(3-(4-amino-3-(6-phenoxypyridin-3-yl)-1H-pyrazolo[3,4-d]pyrimidin-1-yl)piperidin-1-yl) prop-2-en-1-one] | 65.01% | 61.00% | significantly reduce | 18.72 ± 6.6 ng/L | significantly improved | IC50 [6]: 2.5 nM
2 | 2.5 nM | > 1000 nM | > 1000 nM | > 1000 nM | > 1000 nM | > 1000 nM | 4.62 times | 2140 ng·h/mL | 2080 ng·h/mL | 57.8% | 548 ng/mL | 0.75 h | 1.7 h | 2.11 µM | 16.9 nM | C=CC(=O)N1CC[C@@H](n2nc(-c3ccc(Oc4ccccc4)nc3F)c3c(N)ncnc32)C1 [Compound 24a, (R)-1-(3-(4-amino-3-(2-fluoro-6-phenoxypyridin-3-yl)-1H-pyrazolo[3,4-d]pyrimidin-1-yl)pyrrolidin-1-yl)prop-2-en-1-one] | 73.80% | 65.19% | significantly reduce | 19.32 ± 4.2 ng/L | significantly improved | IC50 [6]: 2.17 nM
